Data: patent US12246008B2, “4-amino or 4-alkoxy-substituted aryl sulfonamide compounds with selective activity in voltage-gated sodium channels” (Merck Sharp & Dohme LLC, priority 2018, dated 2025)
Where two headings read alike, the source gives them in different places.

Legend:
Assay in all cases: Qube automated patch-clamp assay, inhibition of sodium current
Format in all cases: cell-based
[1] = target: T1, human Nav1.6 channels stably expressed in HEK 293 cells (Homo sapiens, UniProt Q9UQD0); details: holding potential −65 mV; max concentration tested 33750 nM
T1 construct: expressed in transfected cells; host or cells: HEK 293
Experimental: (§1) Qube™ Experimental Procedure:
(§2) Compounds were tested on human Nav1.7 and Nav1.6 channels stably expressed in HEK 293 cells. […] Cells were sealed on a planar substrate using the multihole technology. Cells expressing human Nav1.7 channels were held at −75 mV or −80 mV. Cells expressing human Nav1.6 channels were held at −65 mV. A train of 6 consecutive test pulses to −10 mV, preceded by 8 s prepulses to −115 mV, was applied at a frequency of 0.1 Hz before and after compound addition. Cells in each Qchip well were incubated in compound for 5 minutes before measuring inhibition. Peak currents were measured in control conditions and after compound addition. The following recording solutions were used (mM). External Nav1.6: 150 NaCl, 2 CaCl2), 5 KCl, 1 Mg Cl2, 10 HEPES, 12 Dextrose; external Nav1.7: 40 NaCl, 120 NMDG, 1 KCl, 0.5 MgCl2, 5 HEPES, 2.7 CaCl2); internal: 120 CsF, 30 CsCl, 10 EGTA, 5 HEPES, 5 NaF, 2 MgCl2. Compounds were prepared as 10 mM stock solutions in DMSO. 10 point compound titrations were generated using the Echo acoustic liquid handling instrument and glass coated 384 well plates. The final DMSO concentration in the assay was 0.3%. For all electrophysiology experiments, offline analysis was used to determine percent inhibition as a function of drug concentration. IC50 values were determined by fitting to the Hill equation.
(§3) The various compounds in EXAMPLES 1 through 43 and TABLE 2 exemplified above were assayed for activity and selectivity using the foregoing Qube® technique. The results are reported in TABLE 3 in a format expressing the identification of the compound with reference EXAMPLE followed by the observed potency in nM for NaV1.7, NaV1.6 and NaV1.5. NA signifies not applicable and the max concentration tested is 33750 nM.

[2] = target: T2, human Nav1.7 channels stably expressed in HEK 293 cells (Homo sapiens, UniProt Q15858); details: max concentration tested 33750 nM, read-out: NaV1.7 (nM)
T2 construct: expressed in transfected cells; host or cells: HEK 293
T2 sequence (Q15858 whole entry): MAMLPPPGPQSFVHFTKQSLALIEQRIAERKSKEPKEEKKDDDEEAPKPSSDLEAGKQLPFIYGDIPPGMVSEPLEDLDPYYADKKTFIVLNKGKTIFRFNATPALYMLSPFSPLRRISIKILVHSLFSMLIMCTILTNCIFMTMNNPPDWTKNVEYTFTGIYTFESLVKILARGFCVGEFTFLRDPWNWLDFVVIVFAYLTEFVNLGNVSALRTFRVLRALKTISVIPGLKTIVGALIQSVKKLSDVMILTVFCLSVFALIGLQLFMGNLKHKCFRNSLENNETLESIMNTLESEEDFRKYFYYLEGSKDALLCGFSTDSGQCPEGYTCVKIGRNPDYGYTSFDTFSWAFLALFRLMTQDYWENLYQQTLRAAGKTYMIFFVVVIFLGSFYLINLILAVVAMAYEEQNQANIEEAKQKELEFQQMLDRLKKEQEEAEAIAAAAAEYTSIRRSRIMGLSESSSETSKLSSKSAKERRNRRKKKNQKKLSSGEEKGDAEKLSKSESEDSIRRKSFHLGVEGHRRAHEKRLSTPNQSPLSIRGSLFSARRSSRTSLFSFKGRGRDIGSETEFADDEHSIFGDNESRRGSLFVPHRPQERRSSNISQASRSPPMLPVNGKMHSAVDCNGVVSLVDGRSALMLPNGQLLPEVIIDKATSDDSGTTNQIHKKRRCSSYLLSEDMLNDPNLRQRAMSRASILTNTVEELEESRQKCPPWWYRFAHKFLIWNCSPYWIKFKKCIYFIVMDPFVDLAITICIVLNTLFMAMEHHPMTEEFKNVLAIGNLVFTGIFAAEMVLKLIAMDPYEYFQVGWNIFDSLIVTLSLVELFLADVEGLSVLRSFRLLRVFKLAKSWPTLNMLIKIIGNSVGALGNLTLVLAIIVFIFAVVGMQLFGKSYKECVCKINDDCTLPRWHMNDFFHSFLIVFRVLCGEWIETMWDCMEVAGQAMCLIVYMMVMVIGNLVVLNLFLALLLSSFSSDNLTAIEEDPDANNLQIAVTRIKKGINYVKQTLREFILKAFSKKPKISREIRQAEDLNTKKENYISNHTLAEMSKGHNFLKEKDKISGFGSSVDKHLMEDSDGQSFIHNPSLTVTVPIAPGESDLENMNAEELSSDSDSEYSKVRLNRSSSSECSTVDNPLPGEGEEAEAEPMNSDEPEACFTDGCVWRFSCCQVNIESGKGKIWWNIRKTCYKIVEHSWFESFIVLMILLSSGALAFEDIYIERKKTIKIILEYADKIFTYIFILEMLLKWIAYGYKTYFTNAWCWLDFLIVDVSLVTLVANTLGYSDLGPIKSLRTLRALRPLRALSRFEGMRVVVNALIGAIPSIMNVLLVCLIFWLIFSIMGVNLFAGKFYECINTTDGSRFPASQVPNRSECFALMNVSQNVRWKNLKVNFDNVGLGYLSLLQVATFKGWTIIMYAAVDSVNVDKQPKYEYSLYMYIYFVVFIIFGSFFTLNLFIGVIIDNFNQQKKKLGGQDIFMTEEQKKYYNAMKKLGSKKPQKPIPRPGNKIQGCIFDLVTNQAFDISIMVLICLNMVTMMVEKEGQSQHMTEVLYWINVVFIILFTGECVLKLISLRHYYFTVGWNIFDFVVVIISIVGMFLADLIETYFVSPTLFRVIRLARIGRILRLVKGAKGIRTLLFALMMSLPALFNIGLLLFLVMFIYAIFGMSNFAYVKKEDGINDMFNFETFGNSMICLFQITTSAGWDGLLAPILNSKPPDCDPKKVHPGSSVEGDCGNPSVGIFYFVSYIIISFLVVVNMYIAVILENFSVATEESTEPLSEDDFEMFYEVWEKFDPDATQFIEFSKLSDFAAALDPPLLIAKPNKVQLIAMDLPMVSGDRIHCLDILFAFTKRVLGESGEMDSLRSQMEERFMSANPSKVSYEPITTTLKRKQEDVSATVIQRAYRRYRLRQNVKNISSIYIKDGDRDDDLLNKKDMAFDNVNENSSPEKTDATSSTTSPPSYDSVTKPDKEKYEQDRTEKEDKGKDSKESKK
Experimental: as §1, §2, §3

NaV1.5 = NaV1.5 (Homo sapiens, UniProt Q14524); details: holding potential −80 mV; max concentration tested 33750 nM
NaV1.5, sequence (Q14524 whole entry): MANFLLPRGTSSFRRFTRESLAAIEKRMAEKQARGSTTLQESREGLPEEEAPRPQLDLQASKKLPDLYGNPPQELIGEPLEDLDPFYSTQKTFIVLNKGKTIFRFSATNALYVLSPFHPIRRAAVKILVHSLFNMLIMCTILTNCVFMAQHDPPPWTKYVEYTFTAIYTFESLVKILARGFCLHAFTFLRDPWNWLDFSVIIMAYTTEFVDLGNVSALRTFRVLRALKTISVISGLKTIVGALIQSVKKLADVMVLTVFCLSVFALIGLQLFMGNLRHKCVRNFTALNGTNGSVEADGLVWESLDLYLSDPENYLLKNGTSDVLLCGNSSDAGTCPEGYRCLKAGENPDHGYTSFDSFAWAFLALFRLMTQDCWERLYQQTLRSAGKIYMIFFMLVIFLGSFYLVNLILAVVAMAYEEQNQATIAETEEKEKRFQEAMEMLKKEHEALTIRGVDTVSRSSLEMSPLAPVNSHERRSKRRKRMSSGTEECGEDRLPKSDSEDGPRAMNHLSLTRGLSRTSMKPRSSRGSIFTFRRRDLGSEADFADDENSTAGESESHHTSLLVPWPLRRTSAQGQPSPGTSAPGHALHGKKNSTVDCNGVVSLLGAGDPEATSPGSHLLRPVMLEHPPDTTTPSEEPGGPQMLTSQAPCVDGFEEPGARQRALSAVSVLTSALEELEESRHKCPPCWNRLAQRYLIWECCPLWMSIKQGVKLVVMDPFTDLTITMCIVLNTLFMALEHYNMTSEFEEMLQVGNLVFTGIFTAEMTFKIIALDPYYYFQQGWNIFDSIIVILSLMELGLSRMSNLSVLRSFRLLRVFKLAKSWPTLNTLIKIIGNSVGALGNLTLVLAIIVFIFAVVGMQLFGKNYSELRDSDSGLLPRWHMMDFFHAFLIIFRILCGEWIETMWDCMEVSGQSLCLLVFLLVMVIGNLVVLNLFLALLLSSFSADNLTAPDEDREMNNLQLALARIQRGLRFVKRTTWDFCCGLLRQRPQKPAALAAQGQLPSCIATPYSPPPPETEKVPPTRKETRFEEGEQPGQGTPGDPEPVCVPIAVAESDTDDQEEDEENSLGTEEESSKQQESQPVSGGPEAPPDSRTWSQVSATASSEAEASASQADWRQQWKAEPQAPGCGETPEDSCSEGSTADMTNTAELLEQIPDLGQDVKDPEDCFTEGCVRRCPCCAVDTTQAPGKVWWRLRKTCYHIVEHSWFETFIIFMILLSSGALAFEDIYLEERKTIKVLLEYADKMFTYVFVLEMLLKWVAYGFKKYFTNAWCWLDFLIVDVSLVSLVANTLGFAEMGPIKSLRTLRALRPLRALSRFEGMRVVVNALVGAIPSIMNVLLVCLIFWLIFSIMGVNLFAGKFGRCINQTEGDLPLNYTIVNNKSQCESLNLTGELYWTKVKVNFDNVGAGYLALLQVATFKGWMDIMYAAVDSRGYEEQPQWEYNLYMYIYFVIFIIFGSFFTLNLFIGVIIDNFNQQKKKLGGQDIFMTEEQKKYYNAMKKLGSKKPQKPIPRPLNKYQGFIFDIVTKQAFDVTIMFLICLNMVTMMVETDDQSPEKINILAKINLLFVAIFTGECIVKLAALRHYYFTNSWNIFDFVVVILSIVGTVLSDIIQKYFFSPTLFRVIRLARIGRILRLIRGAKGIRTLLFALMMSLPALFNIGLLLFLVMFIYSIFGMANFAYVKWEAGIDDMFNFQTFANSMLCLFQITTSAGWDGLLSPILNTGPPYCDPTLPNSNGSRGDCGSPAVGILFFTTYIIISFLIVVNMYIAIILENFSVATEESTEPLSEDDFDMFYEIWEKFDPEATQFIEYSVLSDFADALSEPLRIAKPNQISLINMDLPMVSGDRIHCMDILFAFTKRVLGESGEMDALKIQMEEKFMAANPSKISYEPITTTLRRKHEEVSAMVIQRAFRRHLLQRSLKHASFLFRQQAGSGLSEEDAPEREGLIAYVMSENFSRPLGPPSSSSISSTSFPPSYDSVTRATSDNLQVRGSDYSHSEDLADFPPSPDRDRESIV
Experimental: as §2, §3

[3] = holding potential −75 mV, −75 mV
[4] = holding potential −80 mV, −80 mV

SMILES	IC50 [1] [nM]	IC50 [2, 3] [nM]	IC50 [2, 4] [nM]	IC50 (NaV1.5) [nM]
C[C@@H](N)C(COc1ncc(S(=O)(=O)Nc2ncc(F)s2)cc1Cl)CC1(CCN)CCC1 (single isomer, unassigned) [Example 6]	> 33800	93	–	–
C[C@@H](N)C(CNc1cc(F)c(S(=O)(=O)Nc2ncns2)cc1F)CC1CC(C)(C)CN1 (single isomer, unassigned) [Example 14]	–	–	> 33800	–
C[C@@H](N)C(CNc1cc(F)c(S(=O)(=O)Nc2ncns2)cc1F)CC1CC(C)(C)CN1 (single isomer, unassigned) [Example 17]	> 33800	–	113	> 33800
C[C@@H](N)[C@H](CNc1ccc(S(=O)(=O)Nc2ncns2)c(F)c1)CC(CCN)C1CC1 (single isomer, unassigned) [Example 19]	> 33800	31	–	> 33800
C[C@@H](N)[C@H](CNc1ccc(S(=O)(=O)Nc2ncns2)c(F)c1)CC(CCN)C1CC1 (single isomer, unassigned) [Example 20]	–	–	1390	–
CC[C@@H](N)C(CNc1cc(F)c(S(=O)(=O)Nc2ncns2)c(F)c1F)CC1(CCN)CCC1 (single isomer, unassigned) [Example 21]	–	–	916	–
CC[C@@H](N)C(CNc1cc(F)c(S(=O)(=O)Nc2ncns2)c(F)c1F)CC1(CCN)CCC1 (single isomer, unassigned) [Example 22]	12100	–	26	> 33800
C[C@@H](N)C(CNc1cc(F)c(S(=O)(=O)Nc2ncns2)cc1F)CC1CCCC12CNC2 (single isomer, unassigned) [Example 24]	–	–	> 33800	–
C[C@@H](N)C(CNc1cc(F)c(S(=O)(=O)Nc2ncns2)cc1F)CC1CCCC12CNC2 (single isomer, unassigned) [Example 25]	> 33800	–	83	> 33800
C[C@@H](N)C(CNc1cc(F)c(S(=O)(=O)Nc2ncns2)cc1F)C(N)C1CCC1 (single isomer, unassigned) [Example 34]	> 33800	77	–	> 33800
C[C@@H](N)[C@@H](CC(C)(C)CCN)C1CCc2cc(S(=O)(=O)Nc3ncns3)c(F)cc2O1 (single isomer, unassigned) [Example 41]	–	–	13700	–
C[C@@H](N)C(CNc1cc(F)c(S(=O)(=O)Nc2ncns2)cc1Br)CC1(CCN)CC(F)(F)C1 (single isomer, unassigned) [Example 56]	–	–	> 33800	–
C[C@@H](N)C(CNc1cc(F)c(S(=O)(=O)Nc2ncns2)cc1F)CC1CCCCC1CCN (single isomer, unassigned) [Example 64]	> 33800	–	14600	–
C[C@@H](N)C(CNc1cc(F)c(S(=O)(=O)Nc2ncns2)cc1F)CC1CCCCC1CCN (single isomer, unassigned) [Example 66]	> 33800	–	12600	–
C[C@@H](N)C(CNc1cc(F)c(S(=O)(=O)Nc2ncns2)cc1F)CC1CCCCC1CCN (single isomer, unassigned) [Example 67]	> 33800	–	> 33800	–
C[C@@H](N)C(CNc1cc(F)c(S(=O)(=O)Nc2ncns2)cc1F)CC1CNCC1(C)C (single isomer, unassigned) [Example 76]	> 33800	–	328	–
COC(CN)C[C@@H](CNc1cc(F)c(S(=O)(=O)Nc2ncns2)cc1Br)[C@@H](C)N (single isomer, unassigned) [Example 81]	> 33800	–	87	–
COC(CN)C[C@@H](CNc1cc(F)c(S(=O)(=O)Nc2ncns2)cc1Br)[C@@H](C)N (single isomer, unassigned) [Example 82]	–	–	1760	–
CC(C)C(N)CC(CNc1cc(F)c(S(=O)(=O)Nc2ncns2)cc1Br)[C@@H](C)N (single isomer, unassigned) [Example 108]	> 33800	17	–	–
C[C@@H](N)[C@H](CNc1ncc(S(=O)(=O)Nc2ncns2)cc1C(F)(F)F)CC(C)(C)CCN [Example 13, 6-(((S)-6-amino-2-((R)-1-aminoethyl)-4,4-dimethylhexyl)amino)-N-(1,2,4-thiadiazol-5-yl)-5-(trifluoromethyl)pyridine-3-sulfonamide]	> 33800	230	–	–
C[C@@H](N)[C@H](CNc1ncc(S(=O)(=O)Nc2ncns2)cc1C#N)CC(C)(C)CCN [Example 31, 6-(((S)-6-amino-2-((R)-1-aminoethyl)-4,4-dimethylhexyl)amino)-5-cyano-N-(1,2,4-thiadiazol-5-yl)pyridine-3-sulfonamide]	> 33800	205	–	–

Further lines, with some results ahead:

IC50 [1] [nM]	IC50 [2, 3] [nM]	IC50 [2, 4] [nM]	SMILES	IC50 (NaV1.5) [nM]
20400	203	–	C[C@@H](N)[C@H](CNc1cc(F)c(S(=O)(=O)Nc2ncns2)cc1Cl)CC(N)C(F)(F)F (single isomer, unassigned) [Example 1]	–
13800	84	–	C[C@@H](N)[C@H](CNc1cc(F)c(S(=O)(=O)Nc2ncns2)cc1Cl)CC(N)C(F)(F)F (single isomer, unassigned) [Example 2]	> 33800
> 33800	41	–	C[C@@H](N)C(CNc1cc(F)c(S(=O)(=O)Nc2ncns2)cc1Cl)CC(C)(C)CN (single isomer, unassigned) [Example 3]	> 33800
> 33800	18	–	C[C@@H](N)C(CNc1ncc(S(=O)(=O)Nc2ncc(F)s2)cc1Cl)CC1(CCN)CCC1 (single isomer, unassigned) [Example 8]	–
> 33800	156	–	C[C@@H](N)[C@H](CNc1cc(F)c(S(=O)(=O)Nc2ncns2)cc1Cl)C[C@@H]1C[C@@H]1CN (single isomer, unassigned) [Example 33]	–
> 33800	82	–	CC(C)NCC(CNc1cc(F)c(S(=O)(=O)Nc2ncns2)cc1Cl)[C@@H](C)N (single isomer, unassigned) [Example 36]	> 33800
> 33800	6760	–	CC(C)NCC(CNc1cc(F)c(S(=O)(=O)Nc2ncns2)cc1Cl)[C@@H](C)N (single isomer, unassigned) [Example 37]	–
> 33800	–	3610	C[C@@H](N)C(CNc1cc(F)c(S(=O)(=O)Nc2ncns2)cc1F)CC1CCCC1CN (single isomer, unassigned) [Example 47]	–
> 33800	–	12300	C[C@@H](N)C(CNc1cc(F)c(S(=O)(=O)Nc2ncns2)cc1F)CC1(C)CCC1CN (single isomer, unassigned) [Example 52]	–
> 33800	–	1060	C[C@@H](N)C(CNc1cc(F)c(S(=O)(=O)Nc2ncns2)cc1F)CC1(C)CCC1CN (single isomer, unassigned) [Example 55]	–
> 33800	274	–	C[C@@H](N)C(CNc1ccc(S(=O)(=O)Nc2ncns2)cc1F)CC1(N)CCC1 (single isomer, unassigned) [Example 89]	–
> 33800	–	4130	C[C@@H](N)C(COc1cc(F)c(S(=O)(=O)Nc2ncns2)cc1F)CC1(CCN)CCC1 (single isomer, unassigned) [Example 95]	–
> 33800	618	–	C[C@@H](N)C(CNc1cc(F)c(S(=O)(=O)Nc2ncns2)cc1F)C[C@@]1(C)CCC[C@@H]1CN (single isomer, unassigned) [Example 96]	–
> 33800	–	2360	C[C@@H](N)C(CNc1cc(F)c(S(=O)(=O)Nc2ncns2)cc1F)C[C@]1(C)CCC[C@H]1CN (single isomer, unassigned) [Example 98]	–
> 33800	–	450	C[C@@H](N)C(CNc1cc(F)c(S(=O)(=O)Nc2ncns2)cc1F)C[C@]1(C)CCC[C@H]1CN (single isomer, unassigned) [Example 99]	–
> 33800	84	–	C[C@@H](N)C(CNc1cc(F)c(S(=O)(=O)Nc2ncns2)cc1Cl)CC1COCCN1 (single isomer, unassigned) [Example 101]	–
> 33800	305	–	C[C@@H](N)C(CNc1cc(F)c(S(=O)(=O)Nc2ncns2)cc1Cl)CC1COCCN1 (single isomer, unassigned) [Example 104]	–
8340	14	–	C[C@@H](N)[C@H](CNc1cc(F)c(S(=O)(=O)Nc2cccc(F)n2)cc1Cl)CC1(N)CCC1 [Example 105]	–
> 33800	133	–	Cc1csc(NS(=O)(=O)c2cc(Cl)c(NC[C@H](CC(C)(C)N)[C@@H](C)N)cc2F)n1 [Example 106]	–
3590	17	–	Cc1cc(S(=O)(=O)Nc2ncc(F)s2)c(F)cc1NC[C@H](CC(C)(C)N)[C@@H](C)N [Example 107]	–
